System: IL-2
Assay: PHA-IL2 (cell activation and cytokine analysis)
Type: cell-based
Conditions: 50% inhibition concentration class
Summary of the method: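 Cells were seeded in 96-well plates at 1.0-2.0×10^6 cells/ml in 150 ul of RPMI containing 0.5% fetal calf serum. Test compounds, at up to ≤20 uM, were preincubated with the cells for 30 minutes, then phytohemagglutinin (PHA) was added and cultures were stimulated for 24-48 hours at 37 degrees C./5% CO2. Supernatant IL-2 was then quantified by standard ELISA.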

First: COc1cccc(CCC2CCN(C(=O)C[S+]([O-])c3ccccc3-c3ccccc3)CC2)c1 (stereo not drawn) [Compound 313]
Second: O=C(COc1cccnc1-c1ccc(F)cc1O)N1CCC(CCc2ccccc2)CC1 [Compound 330]
The IC50 of the first is higher: 10 to 50 µM for the first, 1 to 10 µM for the second. The second is the more potent here.

First: O=C(c1ccccc1)c1ccc(-c2ccccc2OCC(=O)N2CCC(CCc3ccc(O)cc3)CC2)cc1 [Compound 314]
Second: O=C(c1ccccc1)c1ccc(-c2ccccc2OCC(=O)N2CCC(CCc3cc(Br)c(O)c(Br)c3)CC2)cc1 [Compound 332]
The IC50 of the first is lower: under 1 µM for the first, 1 to 10 µM for the second.

`N#Cc1ccc(-c2cc(C(=O)O)ccc2OCC(=O)N2CCC(CCc3ccccc3)CC2)cc1` [Compound 315] and `N#Cc1ccc(-c2cc(C(N)=O)ccc2OCC(=O)N2CCC(CCc3ccccc3)CC2)cc1` [Compound 321] fall in the same range of IC50: 1 to 10 µM for the first, 1 to 10 µM for the second.

`CN(C)C(=O)c1ccc(OCC(=O)N2CCC(CCc3ccccc3)CC2)c(-c2ccc(C#N)cc2)c1` [Compound 316] and `CN(C)CCNC(=O)c1ccc(OCC(=O)N2CCC(CCc3ccccc3)CC2)c(-c2ccc(C#N)cc2)c1` [Compound 325] fall in the same range of IC50: 1 to 10 µM for the first, 1 to 10 µM for the second.

First: CC(C)NC(=O)c1ccc(OCC(=O)N2CCC(CCc3ccccc3)CC2)c(-c2ccc(C#N)cc2)c1 [Compound 317]
Second: N#Cc1ccc(-c2cc(C(=O)NCCO)ccc2OCC(=O)N2CCC(CCc3ccccc3)CC2)cc1 [Compound 322]
The IC50 of the first is lower: under 1 µM for the first, 1 to 10 µM for the second. The first is the more potent here.

Compared with `N#Cc1ccc(-c2cc(C(=O)N3CCOCC3)ccc2OCC(=O)N2CCC(CCc3ccccc3)CC2)cc1` [Compound 318], `NC(=O)c1ccc(OCC(=O)N2CCC(CCc3ccccc3)CC2)c(-c2ccc(F)cc2O)c1` [Compound 320] is lower in IC50: 1 to 10 µM for the first, under 1 µM for the second.

`CC(C)NC(=O)c1ccc(OCC(=O)N2CCC(CCc3ccccc3)CC2)c(-c2ccc(F)cc2O)c1` [Compound 319] and `O=C(COc1ccncc1-c1ccc(F)cc1O)N1CCC(CCc2ccc3c(c2)OCO3)CC1` [Compound 331] fall in the same range of IC50: 10 to 50 µM for the first, 10 to 50 µM for the second.

`N#Cc1ccc(-c2ncccc2OCC(=O)N2CCC(CCc3ccc4c(c3)OCO4)CC2)cc1` [Compound 323] and `N#Cc1ccc(-c2cccnc2OCC(=O)N2CCC(CCc3ccc4c(c3)OCO4)CC2)cc1` [Compound 324] fall in the same range of IC50: 1 to 10 µM for the first, 1 to 10 µM for the second.

First: O=C(COc1cccnc1-c1ccc(F)cc1O)N1CCC(CCc2ccc3c(c2)OCO3)CC1 [Compound 326]
Second: O=C(COc1cccnc1-c1ccc(F)cc1O)N1CCC(CCc2ccc3c(c2)OCCO3)CC1 [Compound 337]
The IC50 of the first is higher: 1 to 10 µM for the first, under 1 µM for the second.

First: N#Cc1ccc(-c2cnccc2OCC(=O)N2CCC(CCc3ccc4c(c3)OCO4)CC2)cc1 [Compound 327]
Second: O=C(COc1cccnc1-c1ccc(F)nc1)N1CCC(CCc2ccc3c(c2)OCO3)CC1 [Compound 340]
The IC50 of the first is higher: 10 to 50 µM for the first, 1 to 10 µM for the second.

`O=C(COc1cccnc1-c1ccc2[nH]ncc2c1)N1CCC(CCc2ccc3c(c2)OCO3)CC1` [Compound 328] and `O=C(COc1cccnc1-c1ccc(F)nc1)N1CCC(CCc2ccc3c(c2)OCCO3)CC1` [Compound 341] fall in the same range of IC50: 1 to 10 µM for the first, 1 to 10 µM for the second.

Compared with `O=C(COc1ncccc1-c1ccc(F)cc1O)N1CCC(CCc2ccc3c(c2)OCO3)CC1` [Compound 329], `O=C(COc1cccnc1-c1ccc(F)cc1O)N1CCC(CCc2ccc3c(c2)OCCCO3)CC1` [Compound 338] is lower in IC50: 10 to 50 µM for the first, 1 to 10 µM for the second.

`Cc1cc(F)ncc1-c1ncccc1OCC(=O)N1CCC(CCc2ccccc2)CC1` [Compound 333] and `Cc1cc(F)ncc1-c1ncccc1OCC(=O)N1CCC(CCc2ccc3c(c2)OCCO3)CC1` [Compound 336] fall in the same range of IC50: 10 to 50 µM for the first, 10 to 50 µM for the second.

`N#Cc1ccc(-c2ncccc2OCC(=O)N2CCC(CCc3ccccc3)CC2)cn1` [Compound 334] and `N#Cc1ccc(-c2ncccc2OCC(=O)N2CCC(CCc3ccc4c(c3)OCCO4)CC2)cn1` [Compound 335] fall in the same range of IC50: 1 to 10 µM for the first, 1 to 10 µM for the second.

First: O=C(COc1cccnc1-c1ccc(F)nc1)N1CCC(CCc2ccc3c(c2)OCCCO3)CC1 [Compound 339]
Second: N#Cc1ccc(-c2ncccc2OCC(=O)N2CCC(CCc3ccc4c(c3)OCCCO4)CC2)cn1 [Compound 342]
The IC50 of the first is lower: 1 to 10 µM for the first, 10 to 50 µM for the second. The first is the more potent here.

From US10899747B2, “Biaryl piperidine amide compounds and methods of use thereof” (Athenex, Inc., priority 2017, dated 2021)
